Assay results published in paper PMC4450297, “Screening Active Compounds from Garcinia Species Native to China Reveals Novel Compounds Targeting the STAT/JAK Signaling Pathway” (BioMed Research International, 2015).

How the values were obtained:
Experiment in all cases: Cell panel screen (CellTiter-Glo)
Assay type in all cases: cell-based, human
A498 = A498 (listed under Lung), 20 micromolar, 72 hrs
Protocol: (§1) All cells were obtained from the cell bank of the American Type Culture Collection (ATCC) and cultured in the supplier's recommended media supplemented with 10% FBS. The cell panel screen was measured using the CellTiter-Glo assay (Promega, Madison, WI) following a standard protocol. Briefly, cancer cells were seeded in 96-well plates and cultured overnight at 37°C with or without 5% CO2 in an incubator. Each compound was dissolved with limited DMSO and diluted to a certain concentration with culture medium and then added to the corresponding well of the cell plate. The final concentration of compound was 20 μM. The control cells (without treatment) received the same amount of DMSO and were incubated under the same conditions. After 72 h cultivation, 100 μL of the CellTiter-Glo reagent was added directly to each well for 10-minute incubation. The plate was then read on a FlexStation 3 microplate luminometer (Molecular Devices, USA) to monitor the luminescence signal generated by the luciferase-catalyzed reaction of luciferin and ATP. The percent of growth inhibition was calculated using the following formula: (untreated cells − treated cells)/(untreated cells − background without cells) ∗ 100.

A704 = A704 (Kidney), 20 micromolar, 72 hrs
Protocol: as §1

BT-474 = BT-474 (Breast), 20 micromolar, 72 hrs
Protocol: as §1

BT-549 = BT-549 (Breast), 20 micromolar, 72 hrs
Protocol: as §1

Bel-7402 = Bel-7402 (Liver), 20 micromolar, 72 hrs
Protocol: as §1

C3A = C3A (Liver), 20 micromolar, 72 hrs
Protocol: as §1

C8166 = C8166 (Leukemia), 20 micromolar, 72 hrs
Protocol: as §1

CCF-STTG1 = CCF-STTG1 (Brain), 20 micromolar, 72 hrs
Protocol: as §1

CW-2 = CW-2 (Colon), 20 micromolar, 72 hrs
Protocol: as §1

ChaGo-K-1 = ChaGo-K-1 (Lung), 20 micromolar, 72 hrs
Protocol: as §1

Colo 205 = details: Colo 205, 20 micromolar, 72 hrs
Protocol: as §1

HCC1395 = HCC1395 (Breast), 20 micromolar, 72 hrs
Protocol: as §1

HCC1569 = HCC1569 (Breast), 20 micromolar, 72 hrs
Protocol: as §1

HCC1599 = HCC1599 (Breast), 20 micromolar, 72 hrs
Protocol: as §1

HCC1937 = HCC1937 (Breast), 20 micromolar, 72 hrs
Protocol: as §1

HEC-1-A = HEC-1-A (Uterus), 20 micromolar, 72 hrs
Protocol: as §1

HGC-27 = HGC-27 (Stomach), 20 micromolar, 72 hrs
Protocol: as §1

HPAF-II = HPAF-II (Pancreas), 20 micromolar, 72 hrs
Protocol: as §1

HT-1197 = HT-1197 (Urinary bladder), 20 micromolar, 72 hrs
Protocol: as §1

J82 = J82 (Urinary bladder), 20 micromolar, 72 hrs
Protocol: as §1

M059J = M059J (Brain), 20 micromolar, 72 hrs
Protocol: as §1

MSTO-211-H = MSTO-211-H (Lung), 20 micromolar, 72 hrs
Protocol: as §1

NCI-H1623 = NCI-H1623 (Lung), 20 micromolar, 72 hrs
Protocol: as §1

NCI-H1694 = NCI-H1694 (Lung), 20 micromolar, 72 hrs
Protocol: as §1

NCI-H1770 = NCI-H1770 (Lung), 20 micromolar, 72 hrs
Protocol: as §1

NCI-H2347 = NCI-H2347 (Lung), 20 micromolar, 72 hrs
Protocol: as §1

NCI-H2405 = NCI-H2405 (Lung), 20 micromolar, 72 hrs
Protocol: as §1

NCI-H28 = NCI-H28 (Lung), 20 micromolar, 72 hrs
Protocol: as §1

NCI-H524 = NCI-H524 (Lung), 20 micromolar, 72 hrs
Protocol: as §1

Panc 03.27 = Panc 03.27 (Pancreas), 20 micromolar, 72 hrs
Protocol: as §1

RL95 = RL95 (Uterus), 20 micromolar, 72 hrs
Protocol: as §1

SW13 = SW13 (Adrenal gland), 20 micromolar, 72 hrs
Protocol: as §1

T47D = T47D (Breast), 20 micromolar, 72 hrs
Protocol: as §1

T98G = T98G (Brain), 20 micromolar, 72 hrs
Protocol: as §1

TCCSUP = TCCSUP (Urinary bladder), 20 micromolar, 72 hrs
Protocol: as §1

ZR-75-30 = ZR-75-30 (Breast), 20 micromolar, 72 hrs
Protocol: as §1

| SMILES | Percent Inhibition (A498) | Percent Inhibition (A704) | Percent Inhibition (BT-474) | Percent Inhibition (BT-549) | Percent Inhibition (Bel-7402) | Percent Inhibition (C3A) | Percent Inhibition (C8166) | Percent Inhibition (CCF-STTG1) | Percent Inhibition (CW-2) | Percent Inhibition (ChaGo-K-1) | Percent Inhibition (Colo 205) | Percent Inhibition (HCC1395) | Percent Inhibition (HCC1569) | Percent Inhibition (HCC1599) | Percent Inhibition (HCC1937) | Percent Inhibition (HEC-1-A) | Percent Inhibition (HGC-27) | Percent Inhibition (HPAF-II) | Percent Inhibition (HT-1197) | Percent Inhibition (J82) | also measured |
| --- | --- | --- | --- | --- | --- | --- | --- | --- | --- | --- | --- | --- | --- | --- | --- | --- | --- | --- | --- | --- | --- |
| O=c1c2ccc(O)c(O)c2oc2cccc(O)c12 [gl-23] | 3% | -11% | -16% | -16% | -16% | -1% | -1% | -1% | -3% | -22% | -5% | -11% | 0% | 18% | -1% | -6% | -6% | -5% | -11% | -2% | Percent Inhibition (M059J): -5%; Percent Inhibition (MSTO-211-H): -25%; Percent Inhibition (NCI-H1623): 0%; Percent Inhibition (NCI-H1694): -9%; Percent Inhibition (NCI-H1770): -11%; Percent Inhibition (NCI-H2347): -8%; Percent Inhibition (NCI-H2405): -14%; Percent Inhibition (NCI-H28): -10%; Percent Inhibition (NCI-H524): -30%; Percent Inhibition (Panc 03.27): -5%; Percent Inhibition (RL95): -20%; Percent Inhibition (SW13): -10%; Percent Inhibition (T47D): -4%; Percent Inhibition (T98G): -2%; Percent Inhibition (TCCSUP): -5%; Percent Inhibition (ZR-75-30): 16% |
| COC(=O)C1OC(Oc2cc(O)c3c(c2)OC(c2ccc(O)c(O)c2)CC3=O)C(O)C(O)C1O (stereo not drawn) [gly-5] | -12% | -7% | -15% | -12% | -8% | -1% | -5% | 8% | 1% | -10% | -4% | 11% | -7% | -41% | 1% | -16% | -2% | -7% | 0% | -8% | Percent Inhibition (M059J): 6%; Percent Inhibition (MSTO-211-H): -6%; Percent Inhibition (NCI-H1623): 7%; Percent Inhibition (NCI-H1694): -2%; Percent Inhibition (NCI-H1770): -6%; Percent Inhibition (NCI-H2347): 1%; Percent Inhibition (NCI-H2405): 5%; Percent Inhibition (NCI-H28): -17%; Percent Inhibition (NCI-H524): -5%; Percent Inhibition (Panc 03.27): 3%; Percent Inhibition (RL95): 6%; Percent Inhibition (SW13): -6%; Percent Inhibition (T47D): 2%; Percent Inhibition (T98G): 0%; Percent Inhibition (TCCSUP): -11%; Percent Inhibition (ZR-75-30): 7% |
| CC(C)=CCCC1(C)C=Cc2c(O)c3c(c(CC=C(C)C)c2O1)OC12C(=CC4CC1C(C)(C)OC2(CC=C(C)C(=O)O)C4=O)C3=O (mixture of isomers) [GB14] | 97% | 97% | 98% | 98% | 97% | 98% | 97% | 98% | 98% | 98% | 98% | 98% | 98% | 98% | 98% | 97% | 98% | 97% | 98% | 97% | Percent Inhibition (M059J): 97%; Percent Inhibition (MSTO-211-H): 97%; Percent Inhibition (NCI-H1623): 98%; Percent Inhibition (NCI-H1694): 98%; Percent Inhibition (NCI-H1770): 97%; Percent Inhibition (NCI-H2347): 97%; Percent Inhibition (NCI-H2405): 97%; Percent Inhibition (NCI-H28): 97%; Percent Inhibition (NCI-H524): 98%; Percent Inhibition (Panc 03.27): 97%; Percent Inhibition (RL95): 97%; Percent Inhibition (SW13): 97%; Percent Inhibition (T47D): 98%; Percent Inhibition (T98G): 98%; Percent Inhibition (TCCSUP): 98%; Percent Inhibition (ZR-75-30): 99% |
